The results in this text go back to patent US7915297B2, “Isoxazole derivatives and use thereof” (SK Holdings Co., Ltd., priority 2005, dated 2011).

The test system of assay [1] is Wnt/β-catenin signaling (β-catenin activity) in HEK293 cell line. Kind of assay: Cell-based Wnt agonist screening, TCF luciferase reporter, HEK293 (TCF-FL). Details: species or system human. As to conditions: Homo sapiens, HEK293, 24 h, % of LiCl (20 mM), 24 h, Conc. 60 μM, read-out: Max. Activity (%). The procedure, abridged: (§1)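 HEK293 and SW480 lines stably carried a 5X TCF firefly luciferase reporter under G418 selection. Cells (8,000–15,000/well, RPMI 1640 with 5% FBS) were grown 24 h, then treated with compound for 24 h. Luciferase activity was expressed as percent of the 20 mM LiCl positive control.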
(Reporter assays use an easily measured gene product as a stand-in for the process of interest.)

Assay [2] deals with Wnt/β-catenin signaling (β-catenin activity) in SW480 cell line. Kind of assay: Cell-based Wnt agonist screening, TCF luciferase reporter, SW480 (TCF-FL). Details: species or system human. The note with it: Homo sapiens, % of LiCl (20 mM), 24 h, Con. 120 μM, read-out: Max. Activity (%). The procedure, abridged: as §1
Assay [3] deals with ovariectomized ICR mice. Kind of assay: In vivo osteoporosis assay in ovariectomized ICR mice (DEXA, micro-CT of spine L3-L6). As to conditions: for BMD (g/cm^2) Avg. ± SD / BMD Change (%) / Trabeculae volume Change (%) / Trabeculae volume(mm^2) Avg. ± SD: four weeks; for BMD (g/cm^2) Avg. ± SD: spine L3-L6, DEXA; for BMD Change (%) / Trabeculae volume Change (%): Sham = 0.0. The protocol: Experimental animals were female ICR mice having body weights of 24-28 g which were about 7 weeks old. In each cage, measuring 40×25×17 cm, 2-3 mice were reared at 22° C., RH 50%.
Ovariectomy is known as one of the most widely used techniques for inducing osteoporosis. As in postmenopause case, the ovariectomy-operation induce estrogen insufficient, result in decrease of osteogenesis and increase of bone resorption, lead to osteoporosis. Anaesthetized 7-week-old female ICR mice underwent ovariectomies and, immediately after the removal of both ovaries, they were administered with test compounds to determine the preventive and therapeutic effects thereof on osteoporosis.
1) Preparation of test material: Predetermined amounts of Derivative (1) were suspended in 0.5% CMC to prepare test materials to be administered. As for the control drug alendronate, 0.17% citric acid was added thereto as a pharmacopoeia to aid in the uptake of the drug.
2) Administration period: four weeks
3) Administration route and method: test materials were administered in a volume of 10 ml/kg of body weight, measured on the administration day, into seven groups: (1) intact control (ICR mice bred with typical diet, control); (2) ovariectomy control (the abdomen opened and closed without removal of the ovary, Sham); (3) ovariectomy group (ovaries removed, OVX); (4) alendronate-treated group (a dose of 5 mg/kg/day); (5) Derivative (1) 30 mg/kg/day treated group (OVX+Derivative (1) 30 mpk); (6) Derivative (1) 90 mg/kg/day treated group (OVX+Derivative (1) 90 mpk); and (7) Derivative (1) […] treated group (OVX+Derivative (1) 30 mpkW). Groups (1)˜(6) were orally treated five day a week for four weeks while group (7) was treated once a week for four weeks.
After administration for four weeks, the spine (L3-L6) was analyzed for bone mineral density (BMD) through dual-energy X-ray absorptiometry (DEXA) using a Lunar Pixi #5 instrument. Micro-computed tomography (Micro-CT) was performed to determine the effects of the test materials on bone mass and bone strength and on the tertiary bone mass of the spine (L3-L6).

Setting [4] is: Group 5 (OVX + D30): 30 mg/kg/day, oral.
[5] abbreviates: Group 6 (OVX + D90): 90 mg/kg/day, oral.
Setting [6] is: Group 7 (OVX + W30): 90 mg/kg/week (30 mpkW), once a week.

`O=C(NCCCn1ccnc1)c1cc(-c2ccco2)on1` [Derivative (1), 5-furan-2-yl-isoxazole-3-carboxylic acid (3-imidazol-1-yl-propyl)-amide]: the Emax at 60 µM in assay [1] was 70%. In assay [2], the Emax at 120 µM stood at 957%. The “BMD (g/cm^2) Avg. ± SD” value in assay [3] (Group 5 (OVX + D30): 30 mg/kg/day, oral, five day a week) amounted to 0.061 ± 0.007 g/cm^2; in assay [3] (Group 6 (OVX + D90): 90 mg/kg/day, oral, five day a week), 0.063 ± 0.005 g/cm^2; in assay [3] (setting [6]) it was 0.058 ± 0.006 g/cm^2. The “BMD Change (%)” value in assay [3] (setting [4]) is on record as −11.6%; in assay [3] (setting [5]), −8.7%; in assay [3] (setting [6]), −15.9%. Also, the results for the “Trabeculae volume Change (%)” value in assay [3] (setting [4]), in assay [3] (setting [5]) and in assay [3] (setting [6]) were 4.8%, 44.4% and 26.1%, respectively. For the same compound, the “Trabeculae volume(mm^2) Avg. ± SD” value in assay [3] (Group 5 (OVX + D30): 30 mg/kg/day, oral, spine L3-L6, micro-CT) was found to be 21.7 ± 2.43 mm^2; in assay [3] (Group 6 (OVX + D90): 90 mg/kg/day, oral, spine L3-L6, micro-CT) it was 29.9 ± 0.83 mm^2; in assay [3] (Group 7 (OVX + W30): 90 mg/kg/week (30 mpkW), once a week, micro-CT), 26.1 ± 1.87 mm^2. Besides, the “therapeutic effect on bone mass compared with alendronate” value in assay [3] (OVX mice, four weeks administration) is “exceed that of alendronate”. For the same compound, the “effect on bone mineral density (BMD) versus OVX group” value in assay [3] (OVX mice, four weeks administration, DEXA) was “decrease in bone mineral density to lesser extents compared to the OVX group”. The “effect on bone mass (BV/TV)” value in assay [3] (OVX mice, four weeks administration, micro-CT) is “restrain the decrease of bone mass, but also to increase the bone density to a higher level than before ovariectomy”.
